The series is described as follows: Fluorescent detection of Cu2+ in seawater (high salt). Conditions: 1 μM dye in seawater; zero to 10 μM added Cu2+ (CuCl2). How it is done:
The metal-ion indicators of the present invention can be used to detect low levels of target ions in the presence of very high concentrations of other mono- and divalent cations. For example, a solution of a green fluorescent phenanthroline derivative (as described in Example 1) is diluted into freshly collected, unfiltered seawater to give a dye concentration of 1 μM. Using 10 mM EGTA, pH 7.20, 100 mM KCL in 10 mM MOPS as a standard, the fluorescence emission of the indicator solution is scanned from 450 nm to 650 nm in a Perkin Elmer PE-450 fluorimeter with excitation at 488 nm.

In the case of `O=C1OC2(c3ccc(O)cc3Oc3cc(O)ccc32)c2ccc(NC(=S)Nc3cc4cccnc4c4ncccc34)cc21`, the “fluorescence emission remaining, of original emission intensity, after added Cu^2+” value is recorded as “approximately 10%”.

The values are drawn from patent US6013802A, “Fluorescent conjugates of metal-chelating nitrogen heterocycles” (Molecular Probes, Inc., priority 1997, dated 2000).
